# Data from paper PMC13500670, “The U1 snRNP protein U1C and Helix H of U1 snRNA are critical for small molecule splicing modulator function” (Nature Communications, 2026).
# Columns and labels:
# [1] = target: T1, U1 snRNP + FOXM1 5' ss oligo (Homo sapiens, UniProt P09234); experiment: FP: U1 snRNP binding to FOXM1 5' ss oligo (Supplementary Fig. 2)
# T1 construct: host or cells: either HeLa-S3 U1A-HTP cells (native, as F1) or E. coli proteins (reconstituted, as F2)
# Method: All of 5′-FAM labeled RNA oligos used in this study were synthesized and purified by IDT (USA). Fluorescence polarization (FP) assays were performed in binding buffer (20 mM HEPES pH 7.5, 1 mM MgCl2, 200 mM KCl, 0.01% TritonX-100, 0.1%PEG3350, 2%DMSO) at room temperature using a Envision HTS Plate Reader system (Revvity). Each reaction system contains 3 nM of FAM-labeled RNA oligo, reconstituted U1 snRNP (or native U1 snRNP, or full-length U1 snRNA, or the 5′end of U1 snRNA) at twofold increasing concentrations, 800 nM (for reconstituted U1 snRNP) or 400 nM (for native U1 snRNP) U1C, different small molecules in DMSO (10 μM unless otherwise stated). The equilibrium dissociation constants (Kd) of binding reaction were calculated using the following single-site binding model formula in GraphPad Prism: y=START+(END−START)x/kD+x where x and y represent the concentration of U1 snRNP (or U1 snRNA) and the polarization value measured respectively, START represents the polarization value of protein-free nucleic acid probe, END represents the maximum polarization value when U1 snRNP (or U1 snRNA) binds to the fluorescently labeled 5′ ss oligo. All FP experiments are carried out in two distinct biological replicates and error bars represent the standard deviation.
# [2] = tested on: cassette exon / GA/GU iExon inclusion, HEK293 cells, scr siRNA; experiment: RNA-seq splicing analysis, compound dose response, scrambled (mock) siRNA; format: cell-based, human
# From the text: (§1) Skipped exons are highly enriched for noncanonical 5′ ss sequences (on either the intronic or exonic side), which account for 90% of skipped exons (Supplementary Fig. 8C). For example, among skipped exons with a canonical exonic 5′ ss sequence, 74% contain noncanonical intron sequence. These observations are consistent with the previous published role for U1C stabilization of the U1 snRNA-pre-mRNA duplex at the 5′ ss[25]–[28]. […] We will refer to these as class I exons for clarity in later discussion.
# (§2) We next examined the effect of U1C knockdown on compound-mediated splicing. […] We next used the complete dose response to calculate the effective concentration at which deltaPSIcompound-DMSO is 30 (EC-dPSI30).
# (§3) HEK293T cells were grown in DMEM media with 10% FBS. 500,000 cells in 1.75 mL of media were plated into a 6-well plate for approximately 6 h. Either siRNA negative control (ThermoFisher Silencer^TM Negative control #2, AM4613) or U1C siRNA (ThermoFisher Silencer^TM Select Pre-designed siRNA, S13225) were transfected for a final concentration of 25 nM using Invitrogen Lipofectamine RNAiMax (13778-150). In brief, 10 μL 5 μM siRNA was added to 115 μL of OptiMEM, while 5 μL Lipofectamine added to 120 μL OptiMEM for 5 minu before mixing the solutions and incubating for 20 min. 250 μL of Lipofectamine:siRNA solution was gentle added to the 1.75 mL cells. After 24 h post-transfection, cells were treated with 10 μL compound resuspended in DMSO. […] Each compound-treated experimental condition was treated and collected in duplicate, while four DMSO only treated samples per siRNA transfection were collected. RNA was isolated using KingFisher^TM Apex instrument and the MagMAX™ mirVana™ Total RNA Isolation Kit (A27828) by Thermo Fisher according to manufacturer’s protocol. Isolated RNA was submitted to Admera Health for library preparation (polyA selected, stranded) and mRNA-sequencing and >20 M 150 bp pair-end reads were returned.
# RNAseq and splicing analysis were described earlier using DEDseq (https:// github.com/liwc01/DEDSeq[18]) with minor modifications. RNA sequencing reads were mapped to human genome (hg19) using STAR (version 2.7.10b); only uniquely mapped reads (with MAPQ > 10) with <5 nt/100 nt mismatches and properly paired reads were used. For splicing analysis, all junction reads (read with a gap in alignment indicating splicing) were used, including the ones mapped to unannotated splice sites. Reads were counted for different exons (for cassette exon [CE]) or exonic regions (for A5′ss or A3′ss). For each splicing event, a percent-spliced-in (PSI) value was calculated using the percent of average read number supporting the inclusion among all reads supporting either the inclusion or the exclusion. A minimum of 10 for the denominator of PSI calculation was required. Otherwise, a “NA” value would be generated. PSI values for biological replicates were averaged, and the PSI difference between the two treatment groups was calculated. For a statistical test, a 2 × 2 read counts table was made for each event, with rows for reads supporting inclusion or exclusion, and columns for the two comparing sample groups. Fisher’s exact test was used for the statistical tests. For biological replicates, each pair of the testing and control sample was analyzed by Fisher’s exact test and the geometric mean of all P-values was reported as a final P-value. PSI change (deltaPSI) of >10% (or < −10%) and P < 0.001 was used to select splicing events being regulated by the treatment. PSI calculation, Fisher’s exact test were performed using R (4.0.5). 5′ ss composition analysis was performed as described in ref. [25]. Potency of splicing modulator was determined by plotting dPSI and identifying the concentration at which the change in PSI reached 30% and reported as EC_dPSI30.
# [3] = tested on: cassette exon / GA/GU iExon inclusion, HEK293 cells, U1C KD; experiment: RNA-seq splicing analysis, compound dose response, U1C knockdown; format: cell-based, human
# From the text: as §1, §2, §3
# RNAseq and splicing analysis were described earlier using DEDseq (https:// github.com/liwc01/DEDSeq[18]) with minor modifications. RNA sequencing reads were mapped to human genome (hg19) using STAR (version 2.7.10b); only uniquely mapped reads (with MAPQ > 10) with <5 nt/100 nt mismatches and properly paired reads were used. For splicing analysis, all junction reads (read with a gap in alignment indicating splicing) were used, including the ones mapped to unannotated splice sites. Reads were counted for different exons (for cassette exon [CE]) or exonic regions (for A5′ss or A3′ss). For each splicing event, a percent-spliced-in (PSI) value was calculated using the percent of average read number supporting the inclusion among all reads supporting either the inclusion or the exclusion. A minimum of 10 for the denominator of PSI calculation was required. Otherwise, a “NA” value would be generated. PSI values for biological replicates were averaged, and the PSI difference between the two treatment groups was calculated. For a statistical test, a 2 × 2 read counts table was made for each event, with rows for reads supporting inclusion or exclusion, and columns for the two comparing sample groups. […] For biological replicates, each pair of the testing and control sample was analyzed by Fisher’s exact test and the geometric mean of all P-values was reported as a final P-value. […] Potency of splicing modulator was determined by plotting dPSI and identifying the concentration at which the change in PSI reached 30% and reported as EC_dPSI30.
smiles,measurement,setting,value
"Cc1cn2nc(-c3cc(=O)n4cc(N5CCNC6(CC6)C5)ccc4n3)cc(C)c2n1 [Risdiplam, risdiplam]",effect on binding between U1 snRNP and FOXM1 5' ss oligo,[1],no effect
same,geomean pEC_dPSI30 for all GA/GU iExons,"[2]; Fig. 8C, mock knockdown, -log10 of compound concentration when dPSI achieves 30%",6.05
same,saturation PSI of PDXDC1 iExon,"[2]; highest dose, mock and U1C KD reach similar saturation",40
same,U1CKD Log10 effect,"[3]; Fig. 8C picture, pEC-dPSI30 mock versus U1C KD",-0.42
same,geomean pEC_dPSI30 for all GA/GU iExons,"[3]; Fig. 8C, U1C KD",5.63
